Measurements published in PubChem BioAssay (NCI).
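These data come from cells grown in 96-well plates and exposed to compound for 48 hours at five concentrations. TGI marks complete inhibition of growth.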

Assays:
Assay in all cases: growth of human tumour cells (NCI), 48 h
MALME-3M melanoma = system: MALME-3M melanoma
UO-31 renal = system: UO-31 renal
SN12C renal = system: SN12C renal
SF-268 CNS = system: SF-268 CNS
OVCAR-8 ovarian = system: OVCAR-8 ovarian
U251 CNS = system: U251 CNS
HS 578T breast = system: HS 578T breast
RXF 393 renal = system: RXF 393 renal
OVCAR-3 ovarian = system: OVCAR-3 ovarian
CAKI-1 renal = system: CAKI-1 renal
A549 NSCLC = system: A549 NSCLC
COLO 205 colon = system: COLO 205 colon
PC-3 prostate = system: PC-3 prostate
SK-MEL-28 melanoma = system: SK-MEL-28 melanoma
NCI-H226 lung = system: NCI-H226 lung
MOLT-4 leukemia = system: MOLT-4 leukemia
NCI-H460 lung = system: NCI-H460 lung
K-562 leukemia = system: K-562 leukemia
786-0 renal = system: 786-0 renal
MDA-N = system: MDA-N
SNB-19 CNS = system: SNB-19 CNS
HOP-62 NSCLC = system: HOP-62 NSCLC
T-47D breast = system: T-47D breast
M14 melanoma = system: M14 melanoma
TK-10 renal = system: TK-10 renal
SK-OV-3 ovarian = system: SK-OV-3 ovarian
EKVX NSCLC = system: EKVX NSCLC
LOX IMVI melanoma = system: LOX IMVI melanoma
DU-145 prostate = system: DU-145 prostate
SK-MEL-5 melanoma = system: SK-MEL-5 melanoma
CCRF-CEM leukemia = system: CCRF-CEM leukemia
HCT-116 colon = system: HCT-116 colon
SNB-75 CNS = system: SNB-75 CNS
SF-295 CNS = system: SF-295 CNS
UACC-257 melanoma = system: UACC-257 melanoma
UACC-62 melanoma = system: UACC-62 melanoma
MCF7 breast = system: MCF7 breast
ACHN renal = system: ACHN renal
HOP-92 NSCLC = system: HOP-92 NSCLC
BT-549 breast = system: BT-549 breast
MDA-MB-231 breast = system: MDA-MB-231 breast
HCC-2998 colon = system: HCC-2998 colon
OVCAR-4 ovarian = system: OVCAR-4 ovarian
SK-MEL-2 melanoma = system: SK-MEL-2 melanoma
KM12 colon = system: KM12 colon
RPMI-8226 leukemia = system: RPMI-8226 leukemia
HT29 colon = system: HT29 colon
MDA-MB-435 = system: MDA-MB-435
HL-60(TB) leukemia = system: HL-60(TB) leukemia
OVCAR-5 ovarian = system: OVCAR-5 ovarian
NCI-H522 lung = system: NCI-H522 lung
NCI-H23 lung = system: NCI-H23 lung
SF-539 CNS = system: SF-539 CNS
NCI/ADR-RES ovarian = system: NCI/ADR-RES ovarian
IGROV1 ovarian = system: IGROV1 ovarian
SW-620 colon = system: SW-620 colon
A498 renal = system: A498 renal
HCT-15 colon = system: HCT-15 colon
SR leukemia = system: SR leukemia

CCOC(=O)c1cn(CC)c2ccc3c(c2c1=O)S(=O)(=O)C=C3
TGI (MALME-3M melanoma): > 100 µM | TGI (UO-31 renal): > 100 µM | TGI (SN12C renal): > 100 µM | TGI (SF-268 CNS): > 100 µM | TGI (OVCAR-8 ovarian): > 100 µM | TGI (U251 CNS): > 100 µM | TGI (HS 578T breast): > 100 µM | TGI (RXF 393 renal): > 100 µM | TGI (OVCAR-3 ovarian): > 100 µM | TGI (CAKI-1 renal): > 100 µM | TGI (A549 NSCLC): > 100 µM | TGI (COLO 205 colon): > 100 µM | TGI (PC-3 prostate): > 100 µM | TGI (SK-MEL-28 melanoma): > 100 µM | TGI (NCI-H226 lung): > 100 µM | TGI (MOLT-4 leukemia): > 100 µM | TGI (NCI-H460 lung): > 100 µM | TGI (K-562 leukemia): > 100 µM | TGI (786-0 renal): > 100 µM | TGI (MDA-N): > 100 µM | TGI (SNB-19 CNS): > 100 µM | TGI (HOP-62 NSCLC): > 100 µM | TGI (T-47D breast): > 100 µM | TGI (M14 melanoma): > 100 µM | TGI (TK-10 renal): > 100 µM | TGI (SK-OV-3 ovarian): > 100 µM | TGI (EKVX NSCLC): > 100 µM | TGI (LOX IMVI melanoma): > 100 µM | TGI (DU-145 prostate): > 100 µM | TGI (SK-MEL-5 melanoma): > 100 µM | TGI (CCRF-CEM leukemia): > 100 µM | TGI (HCT-116 colon): > 100 µM | TGI (SNB-75 CNS): > 100 µM | TGI (SF-295 CNS): > 100 µM | TGI (UACC-257 melanoma): > 100 µM | TGI (UACC-62 melanoma): > 100 µM | TGI (MCF7 breast): > 100 µM | TGI (ACHN renal): > 100 µM | TGI (HOP-92 NSCLC): > 100 µM | TGI (BT-549 breast): > 100 µM | TGI (MDA-MB-231 breast): > 100 µM | TGI (HCC-2998 colon): > 100 µM | TGI (OVCAR-4 ovarian): > 100 µM | TGI (SK-MEL-2 melanoma): > 100 µM | TGI (KM12 colon): > 100 µM | TGI (RPMI-8226 leukemia): > 100 µM | TGI (HT29 colon): > 100 µM | TGI (MDA-MB-435): > 100 µM | TGI (HL-60(TB) leukemia): > 100 µM | TGI (OVCAR-5 ovarian): > 100 µM | TGI (NCI-H522 lung): > 100 µM | TGI (NCI-H23 lung): > 100 µM | TGI (SF-539 CNS): > 100 µM | TGI (NCI/ADR-RES ovarian): > 100 µM | TGI (IGROV1 ovarian): > 100 µM | TGI (SW-620 colon): > 100 µM | TGI (A498 renal): > 100 µM | TGI (HCT-15 colon): > 100 µM

CC(C)=Nn1cnc2c1NC(C)(C)N=C2C(N)=O
TGI (UO-31 renal): > 10 µM | TGI (SF-268 CNS): > 10 µM | TGI (OVCAR-8 ovarian): > 10 µM | TGI (U251 CNS): > 10 µM | TGI (HS 578T breast): > 10 µM | TGI (RXF 393 renal): > 10 µM | TGI (OVCAR-3 ovarian): > 10 µM | TGI (A549 NSCLC): > 10 µM | TGI (NCI-H226 lung): > 10 µM | TGI (MOLT-4 leukemia): > 10 µM | TGI (NCI-H460 lung): > 10 µM | TGI (K-562 leukemia): > 10 µM | TGI (786-0 renal): > 10 µM | TGI (MDA-N): > 10 µM | TGI (SNB-19 CNS): > 10 µM | TGI (T-47D breast): 8.19 µM | TGI (M14 melanoma): > 10 µM | TGI (TK-10 renal): > 10 µM | TGI (EKVX NSCLC): > 10 µM | TGI (DU-145 prostate): > 10 µM | TGI (SK-MEL-5 melanoma): > 10 µM | TGI (SR leukemia): > 10 µM | TGI (CCRF-CEM leukemia): > 10 µM | TGI (SNB-75 CNS): > 10 µM | TGI (SF-295 CNS): > 10 µM | TGI (UACC-257 melanoma): > 10 µM | TGI (MCF7 breast): > 10 µM | TGI (ACHN renal): > 10 µM | TGI (BT-549 breast): > 10 µM | TGI (MDA-MB-231 breast): 7.64 µM | TGI (OVCAR-4 ovarian): > 10 µM | TGI (KM12 colon): > 10 µM | TGI (MDA-MB-435): > 10 µM | TGI (HL-60(TB) leukemia): > 10 µM | TGI (OVCAR-5 ovarian): > 10 µM | TGI (NCI-H522 lung): > 10 µM | TGI (NCI-H23 lung): > 10 µM | TGI (SF-539 CNS): > 10 µM | TGI (IGROV1 ovarian): > 10 µM
